In ChEMBL document CHEMBL1201862, “PubChem BioAssay data set” (2004):
The source made the active and inactive calls. Cut-off read from the data, not from the text of the source, for most assays here: actives have a measured EC50 and inactives only a lower limit.

Legend:
[1] = biological target: T1, Calpain-2 catalytic subunit (Sus scrofa, UniProt P43367); test: pig calpain II inhibitor potency, dose response, biochemical, fluorogenic peptide substrate (AID 1420); format: functional
T1 sequence (P43367 whole entry): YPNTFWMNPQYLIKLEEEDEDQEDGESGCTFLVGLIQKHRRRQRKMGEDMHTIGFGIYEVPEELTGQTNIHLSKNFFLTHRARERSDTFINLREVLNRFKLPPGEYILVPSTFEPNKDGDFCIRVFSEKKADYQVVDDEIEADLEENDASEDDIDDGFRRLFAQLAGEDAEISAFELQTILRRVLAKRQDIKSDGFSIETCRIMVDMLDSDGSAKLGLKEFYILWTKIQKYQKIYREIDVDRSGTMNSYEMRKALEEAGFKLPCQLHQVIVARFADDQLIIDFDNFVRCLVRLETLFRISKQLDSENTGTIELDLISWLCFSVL

[2] = NIH-3T3 fibroblast cytotoxicity, dose response, cytotoxicity control, cell-based, fluorescence, Alamar Blue, secondary assay (AID 2327); format: functional;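 note: NIH-3T3 mouse fibroblasts cultured with fluconazole at 8 µg/mL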
[3] = system: Streptococcus sp. 'group A'; test: growth inhibition of control SK(-) GAS strain, dose response, counter-screen for streptokinase expression inhibitor project, luminescence, kanamycin, BacTiterGlo, confirmation (AID 1900); format: functional, organism-based
[4] = C. albicans growth with fluconazole, confirmation, fluorescence, retest (AID 2467); format: functional, cell-based
Streptococcus = test: Group A Streptococcus viability loss, dose response, counter-screen for streptokinase expression inhibitor project, luminescence, BacTiterGlo (AID 1915); format: functional, organism-based;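 note: potency for reduction of bacterial viability or growth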
[5] = biological target: Luciferin 4-monooxygenase (Photinus pyralis, UniProt P08659); test: firefly luciferase enzyme inhibitors, dose response, biochemical, luminescence (AID 1891)
[6] = Luminescence Cell-Based Dose Confirmation HTS to Identify Inhibitors of Platelet Dense Granule Release. [Related pubchem assays: 1663 (Primary HTS), 1678 (Summary of Project)]; format: functional
INS1 = test: beta cell apoptosis inhibitors, cytokine rescue, dose response, luminescence, retest (AID 449756); format: functional, cell-based; settings: Rattus norvegicus;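 note: cell death triggered by IL-1 beta plus TNF-alpha plus IFN-gamma mixture; protective hits raise ATP signal compared with cytokine alone wells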
BJ [7] = test: cytotoxicity toward BJ-TERT fibroblasts, dose response, cell-based, RAS-independent, luminescence (AID 1933); format: functional; settings: Homo sapiens
BJ [8] = test: cells; format: functional, cell-based; settings: Homo sapiens
BJ [9] = test: cytotoxicity toward BJ-TERT-LT-ST fibroblasts, dose response, cell-based, RAS-independent, luminescence (AID 1935); format: functional; settings: Homo sapiens;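 note: BJ fibroblasts immortalized with TERT plus LT and ST oncogenes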
[10] = cytotoxicity toward DRD oncogenic fibroblasts, dose response, cell-based, non-viral oncogenic, luminescence (AID 1934); format: functional; settings: Homo sapiens
Streptokinase A = biological target: T2, Streptokinase A (Streptococcus pyogenes serotype M1, UniProt P10520); test: S. pyogenes streptokinase expression inhibitors, potency, dose response, plasminogen activation absorbance, OD405 (AID 1914); format: functional, Streptococcus pyogenes M1 GAS;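 note: secreted streptokinase activity via plasminogen activation per viability signal from cell pellet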
T2 sequence (P10520 whole entry): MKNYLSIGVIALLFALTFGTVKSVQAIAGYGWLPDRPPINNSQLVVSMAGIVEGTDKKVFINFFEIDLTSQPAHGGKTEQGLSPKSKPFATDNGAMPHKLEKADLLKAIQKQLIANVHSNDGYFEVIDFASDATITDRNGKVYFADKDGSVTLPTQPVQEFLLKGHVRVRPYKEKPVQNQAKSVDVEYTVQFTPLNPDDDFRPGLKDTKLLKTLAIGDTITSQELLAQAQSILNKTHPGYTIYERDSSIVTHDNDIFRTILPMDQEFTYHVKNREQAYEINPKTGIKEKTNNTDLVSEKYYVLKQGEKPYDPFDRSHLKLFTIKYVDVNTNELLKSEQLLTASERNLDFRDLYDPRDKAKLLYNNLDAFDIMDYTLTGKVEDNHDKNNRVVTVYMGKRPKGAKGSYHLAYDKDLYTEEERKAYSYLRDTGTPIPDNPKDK

[11] = biological target: T3, Replicative DNA helicase DnaB (Mycobacterium tuberculosis, UniProt P9WMR3); test: DnaB intein splicing inhibitors, dose response, biochemical, cell-free fluorescence (AID 449749); format: functional
T3 sequence (P9WMR3 whole entry): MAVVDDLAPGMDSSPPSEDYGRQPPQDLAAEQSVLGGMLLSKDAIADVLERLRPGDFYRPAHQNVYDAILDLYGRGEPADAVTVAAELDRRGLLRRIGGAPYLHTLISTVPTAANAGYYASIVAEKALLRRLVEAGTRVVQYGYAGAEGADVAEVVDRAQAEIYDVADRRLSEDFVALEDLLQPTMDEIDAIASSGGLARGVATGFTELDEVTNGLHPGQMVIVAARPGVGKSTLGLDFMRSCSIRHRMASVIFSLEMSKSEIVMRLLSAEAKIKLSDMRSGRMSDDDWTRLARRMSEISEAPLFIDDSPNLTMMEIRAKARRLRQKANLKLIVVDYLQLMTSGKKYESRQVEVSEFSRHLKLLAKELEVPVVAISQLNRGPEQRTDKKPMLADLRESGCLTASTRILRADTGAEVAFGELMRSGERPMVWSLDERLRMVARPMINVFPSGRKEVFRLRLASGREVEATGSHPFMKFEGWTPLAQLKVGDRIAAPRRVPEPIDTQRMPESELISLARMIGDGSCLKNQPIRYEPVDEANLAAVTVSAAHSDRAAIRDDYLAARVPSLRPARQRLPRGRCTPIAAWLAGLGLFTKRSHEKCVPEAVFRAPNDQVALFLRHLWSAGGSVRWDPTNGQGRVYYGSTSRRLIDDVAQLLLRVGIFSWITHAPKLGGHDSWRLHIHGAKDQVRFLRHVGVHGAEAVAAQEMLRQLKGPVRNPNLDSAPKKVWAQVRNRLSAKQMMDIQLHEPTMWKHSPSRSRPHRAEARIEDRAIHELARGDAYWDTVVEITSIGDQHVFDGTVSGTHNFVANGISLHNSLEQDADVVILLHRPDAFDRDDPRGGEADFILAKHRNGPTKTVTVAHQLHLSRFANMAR

Protein RecA = biological target: T4, Protein RecA (Mycobacterium tuberculosis, UniProt P9WHJ3); test: Fluorescence Cell-Free Homogeneous Dose Retest to Identify Inhibitors of RecA-Intein Splicing Activity. [Related pubchem assays (depositor defined):AID2097, AID2223, AID489010, AID492950]; format: functional
T4 sequence (P9WHJ3 whole entry): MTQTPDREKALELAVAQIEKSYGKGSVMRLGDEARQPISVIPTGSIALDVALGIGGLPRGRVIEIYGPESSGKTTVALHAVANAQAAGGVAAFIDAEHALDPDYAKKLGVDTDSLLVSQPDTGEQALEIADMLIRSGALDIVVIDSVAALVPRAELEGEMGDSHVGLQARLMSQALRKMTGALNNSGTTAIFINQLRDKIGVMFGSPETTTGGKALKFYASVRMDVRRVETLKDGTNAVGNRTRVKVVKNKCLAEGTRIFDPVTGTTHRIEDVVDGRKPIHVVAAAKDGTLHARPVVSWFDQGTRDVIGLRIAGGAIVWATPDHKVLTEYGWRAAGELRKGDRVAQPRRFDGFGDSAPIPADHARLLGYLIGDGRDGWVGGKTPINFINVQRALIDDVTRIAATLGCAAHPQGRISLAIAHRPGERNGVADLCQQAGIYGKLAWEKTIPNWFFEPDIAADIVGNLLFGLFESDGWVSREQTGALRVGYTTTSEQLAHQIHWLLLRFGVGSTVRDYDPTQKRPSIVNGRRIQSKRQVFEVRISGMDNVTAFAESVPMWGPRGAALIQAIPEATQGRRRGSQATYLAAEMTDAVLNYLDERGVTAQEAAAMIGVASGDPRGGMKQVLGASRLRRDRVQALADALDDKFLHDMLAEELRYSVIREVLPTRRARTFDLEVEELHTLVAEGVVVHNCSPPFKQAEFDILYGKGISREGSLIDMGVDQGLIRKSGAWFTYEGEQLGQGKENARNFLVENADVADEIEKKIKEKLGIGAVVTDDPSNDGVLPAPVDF

[12] = inhibitors of firefly luciferase expression or activity, dose response, H4 neuroglioma cells, luminescence (AID 1990); format: functional, cell-based
[13] = Luminescence Cell-Based Dose Response HTS to Identify Inhibitors of 5'UTR Stem-Loop Driven Prion Protein mRNA Translation in H4 Neuroglioblastoma Cells. [Related pubchem assays: 1827 (Project Summary), 1813 (Primary HTS)]; format: functional
[14] = inhibitors of SNCA 5'UTR-driven reporter translation, confirmation, H4 neuroglioma cells, luminescence (AID 1988); format: functional, cell-based
[15] = Luminescence Cell-Based Dose Response HTS to Identify Activators of Luciferase Translation or Activity in H4 […] Cells. [Related pubchem assays: 1829 (Project Summary), 1814 (Primary HTS)]; format: functional
H4 = test: Luminescence Cell-Based Dose Response HTS to Identify Activators of 5'UTR Stem-Loop Driven Prion Protein mRNA Translation in H4 Neuroglioblastoma Cells. [Related pubchem assays: 1829 (Project Summary), 1814 (Primary HTS)]; format: functional; settings: Homo sapiens

Chain of Luciferin 4-monooxygenase (P08659 whole entry): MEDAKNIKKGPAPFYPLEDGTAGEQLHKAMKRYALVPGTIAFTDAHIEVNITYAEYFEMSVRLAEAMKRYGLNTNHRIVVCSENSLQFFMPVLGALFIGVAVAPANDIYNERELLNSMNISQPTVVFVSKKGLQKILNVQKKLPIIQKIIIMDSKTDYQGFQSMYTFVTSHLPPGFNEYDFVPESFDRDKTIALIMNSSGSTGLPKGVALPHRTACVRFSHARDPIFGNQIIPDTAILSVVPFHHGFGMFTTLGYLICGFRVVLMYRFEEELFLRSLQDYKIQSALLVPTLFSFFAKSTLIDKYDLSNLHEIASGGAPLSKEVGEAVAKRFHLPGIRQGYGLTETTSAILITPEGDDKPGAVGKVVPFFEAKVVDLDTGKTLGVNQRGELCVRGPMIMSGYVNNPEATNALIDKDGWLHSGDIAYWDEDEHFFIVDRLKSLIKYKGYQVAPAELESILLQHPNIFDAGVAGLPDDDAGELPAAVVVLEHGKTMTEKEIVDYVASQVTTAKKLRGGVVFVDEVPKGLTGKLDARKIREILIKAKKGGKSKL

SMILES: CC(=O)N(C)c1ccc(NC(=O)Nc2ccc(C)cc2)cc1
- IC50 [1]: 0.673 µM (not active)

SMILES: O=C(c1cc(-c2ccccc2)[nH]n1)N1CCc2c([nH]c3ccccc23)C1c1ccccn1 (stereo not drawn)
- EC50 [2]: > 160 µM (inactive)
- EC50 [3]: 10.3 µM (active)
- EC50 [4]: 718 nM (active)
- EC50 (Streptococcus): 20.4 µM (active)

SMILES: CCCCNC(=O)c1ccc(N2CCC3(CC2)OCCO3)c([N+](=O)[O-])c1
- EC50 [5]: > 112 µM (not active)
- EC50 [6]: > 112 µM (not active)

SMILES: COc1cc(NC(=O)c2ccccc2NS(=O)(=O)c2ccc(Cl)s2)cc(OC)c1
- EC50 [2]: 14.5 µM (active)
- EC50 [4]: 4130 nM (active)
- AC50 (INS1): 5.95 µM (active)

SMILES: O=C(O)c1ccc2c(=O)n3c(nc2c1)/C(=C/c1ccc(C(F)(F)F)cc1)CC3
- EC50 (BJ [7]): > 150 µM (not active)
- EC50 (BJ [8]): > 150 µM (not active)
- EC50 (BJ [9]): > 150 µM (inconclusive)
- EC50 [10]: > 150 µM (not active)

SMILES: Cc1c(OC(C)C(=O)NCc2ccccn2)ccc2c3c(c(=O)oc12)CCCC3 (stereo not drawn)
- EC50 [5]: > 112 µM (not active)
- EC50 [6]: > 112 µM (not active)

SMILES: COc1cccc(N/C=C/C(=O)c2ccc(OC)c(OC)c2)c1
- EC50 [5]: 14.2 µM (active)
- EC50 [6]: 22.8 µM (active)

SMILES: Cc1cc(Nc2cccc(Cl)c2Cl)n2ncnc2n1
- EC50 [2]: > 150 µM (inactive)
- EC50 [4]: 769 nM (active)

SMILES: O=[N+]([O-])/C=C/c1c(OCc2ccccc2)ccc2ccccc12
- EC50 [3]: 1.49 µM (active)
- EC50 (BJ [7]): 2.3 µM (inconclusive)
- EC50 (Streptokinase A): 1.2 µM (active)
- EC50 (BJ [8]): 90.6 µM (inconclusive)
- EC50 (BJ [9]): 3.63 µM (inconclusive)
- EC50 [10]: 3.7 µM (active)
- EC50 (Streptococcus): 4.18 µM (active)

SMILES: COC(=O)c1sc(NC(=O)c2ccoc2C)nc1C
- EC50 [5]: 2.44 µM (active)
- EC50 [6]: 5.71 µM (active)

SMILES: OCCCNc1nc(-c2ccc(Cl)cc2)nnc1-c1ccc(Br)cc1
- IC50 [1]: 3.09 µM (not active)

SMILES: Cc1ccc(C(=O)NC(=O)OCCn2c(C)cnc2[N+](=O)[O-])cc1
- EC50 [2]: > 160 µM (inconclusive)
- EC50 [4]: > 38000 nM (not active)

SMILES: CCOC(=O)c1sc(N(Cc2ccccc2)C(=O)CCl)nc1C
- EC50 (BJ [7]): 1.77 µM (active)
- EC50 (BJ [8]): 11.9 µM (active)
- EC50 (BJ [9]): 8.8 µM (active)
- EC50 [10]: 4.97 µM (inconclusive)
- AC50 [11]: 2.6 µM (active)
- EC50 (Protein RecA): 0.79 µM (active)

SMILES: COc1ccc(NC(=S)N2CCN(CCN3C(=O)c4cccc5cccc(c45)C3=O)CC2)cc1
- IC50 [1]: 24.2 µM (not active)

SMILES: O=C(O)c1ccc(CN2C(=O)CSC2=S)cc1
- EC50 [2]: > 150 µM (inactive)
- EC50 [4]: 153 nM (active)

SMILES: CCOC(=O)c1cc(-c2ccccc2)sc1NC(=O)C(C)OC(=O)c1cccnc1OCC (stereo not drawn)
- EC50 [5]: > 112 µM (not active)
- EC50 [6]: > 112 µM (not active)

SMILES: O=C1CCN(N=Nc2cccc(Cl)c2)N1
- EC50 [5]: > 112 µM (not active)
- EC50 [6]: > 112 µM (not active)
- AC50 [11]: 40.7 µM (active)
- EC50 (Protein RecA): 15.4 µM (active)

SMILES: COC(=O)c1sccc1NC(=O)Nc1ccc(OC)c(OC)c1
- EC50 [5]: 2.36 µM (active)
- EC50 [6]: 9.25 µM (active)

SMILES: O=c1c2ccccc2c(-c2ccc(O)cc2)nn1-c1cccc(C(F)(F)F)c1
- EC50 [12]: 16.6 µM (active)
- EC50 [13]: > 120 µM (not active)
- EC50 [14]: > 120 µM (not active)

SMILES: CC(C)OC(=O)c1cn(-c2ccccc2)nc1-c1ccc2c(c1)OCCO2
- IC50 [1]: 39.3 µM (not active)

SMILES: O=C1/C(=C\c2ccccc2)C2OCC=C3CN4CCC56c7ccccc7N1C5C2C3CC46 (stereo not drawn)
- EC50 (BJ [7]): 19.4 µM (active)
- EC50 (BJ [8]): > 150 µM (not active)
- EC50 (BJ [9]): > 75 µM (inconclusive)
- EC50 [10]: 15.3 µM (active)

SMILES: O=[N+]([O-])c1cccc(N/N=C/c2ccc(N3CCOCC3)cc2)c1
- EC50 [15]: 46.8 µM (active)
- EC50 (H4): 13.1 µM (active)

SMILES: O=C(N/N=C/c1ccc(Cl)c([N+](=O)[O-])c1)C1CC1
- IC50 [1]: 34.8 µM (not active)

SMILES: CCN(CC)CCCCNc1ncc2cc(-c3cc(OC)cc(OC)c3)c(NC(=O)NC(C)(C)C)nc2n1 [PD-173074]
- EC50 [12]: > 120 µM (not active)
- EC50 [13]: 12.8 µM (active)
- EC50 [14]: 9.24 µM (active)
